This is an account of results in US8084649B2, “Herbicides” (Syngenta Crop Protection, inc., priority 2007, dated 2011).

Holding throughout (type): in vivo
Experiment [1] relates to Echinochloa crus-galli (ECHCG). The experiment can be described thus: Post-emergence herbicidal activity, glasshouse pot test. Conditions: Echinochloa crus-galli, evaluated after 14 or 15 days, read-out: Post-emergence activity, ECHCG (100=total damage to plant; 0=no damage to plant); for pest or weed control at 125 g/ha: rate 125 g/ha; for pest or weed control at 500 g/ha: rate 500 g/ha. In outline: (§1)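 Post-emergence: plants sown in sterilised standard soil, grown 10 days in glasshouse, then sprayed with aqueous solution of active ingredient formulated in acetone with Emulsogen EL, N-methylpyrrolidone, dipropylene glycol monomethyl ether and X-77. Evaluated 14 or 15 days later; scored 0 (no damage) to 100 (total damage).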

The subject of experiment [2] is Alopecurus myosuroides (ALOMY). The description is as above. The note with it: Alopecurus myosuroides, evaluated after 14 or 15 days, read-out: Post-emergence activity, ALOMY (100=total damage to plant; 0=no damage to plant); for pest or weed control at 125 g/ha: rate 125 g/ha; for pest or weed control at 500 g/ha: rate 500 g/ha. In a few lines:
as §1

For experiment [3], the system named is Lolium perenne (LOLPE). The experiment is described as above. The note with it: Lolium perenne, evaluated after 14 or 15 days, read-out: Post-emergence activity, LOLPE (100=total damage to plant; 0=no damage to plant); for pest or weed control at 125 g/ha: rate 125 g/ha; for pest or weed control at 500 g/ha: rate 500 g/ha. In a few lines: as §1
Experiment [4] deals with Avena fatua (AVEFA). The description is as above. The note with it: Avena fatua, evaluated after 14 or 15 days, read-out: Post-emergence activity, AVEFA (100=total damage to plant; 0=no damage to plant); for pest or weed control at 125 g/ha: rate 125 g/ha; for pest or weed control at 500 g/ha: rate 500 g/ha. In outline: as §1
Experiment [5] concerns Setaria faberi (SETFA). Described as above. Conditions: Setaria faberi, evaluated after 14 or 15 days, read-out: Post-emergence activity, SETFA (100=total damage to plant; 0=no damage to plant); for pest or weed control at 125 g/ha: rate 125 g/ha; for pest or weed control at 500 g/ha: rate 500 g/ha. In outline: as §1
For experiment [6], the system named is Digitaria sanguinalis (DIGSA). Described as above. The note with it: Digitaria sanguinalis, evaluated after 14 or 15 days, read-out: Post-emergence activity, DIGSA (100=total damage to plant; 0=no damage to plant); for pest or weed control at 125 g/ha: rate 125 g/ha; for pest or weed control at 500 g/ha: rate 500 g/ha. In a few lines:
as §1

In experiment [7] the test system is Echinochloa crus-galli (ECHCG). The experiment is described as follows: Pre-emergence herbicidal activity, glasshouse pot test. The note with it: Echinochloa crus-galli, 480 h, rate 500 g/ha, evaluated after 20 days, read-out: Pre-emergence activity, ECHCG (100=total damage to plant; 0=no damage to plant). In outline:
(§2)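 Damage was rated visually 20 days after treatment, from 0 (none) to 100 (plant killed). Treatment was a pre-emergence spray of aqueous formulated compound applied to pots sown one day earlier in sterilised soil, with plants then kept under optimum greenhouse conditions.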

Experiment [8] concerns Alopecurus myosuroides (ALOMY). The description is as above. The note with it: Alopecurus myosuroides, 480 h, rate 500 g/ha, evaluated after 20 days, read-out: Pre-emergence activity, ALOMY (100=total damage to plant; 0=no damage to plant). In a few lines: as §2
For experiment [9], the system named is Lolium perenne (LOLPE). Described as above. Conditions: Lolium perenne, 480 h, rate 500 g/ha, evaluated after 20 days, read-out: Pre-emergence activity, LOLPE (100=total damage to plant; 0=no damage to plant). In outline:
as §2

In experiment [10] the test system is Avena fatua (AVEFA). The description is as above. The note with it: Avena fatua, 480 h, rate 500 g/ha, evaluated after 20 days, read-out: Pre-emergence activity, AVEFA (100=total damage to plant; 0=no damage to plant). In a few lines: as §2
The subject of experiment [11] is Setaria faberi (SETFA). Described as above. Conditions: Setaria faberi, 480 h, rate 500 g/ha, evaluated after 20 days, read-out: Pre-emergence activity, SETFA (100=total damage to plant; 0=no damage to plant). In outline: as §2
The subject of experiment [12] is Digitaria sanguinalis (DIGSA). The experiment is described as above. The note with it: Digitaria sanguinalis, 480 h, rate 500 g/ha, evaluated after 20 days, read-out: Pre-emergence activity, DIGSA (100=total damage to plant; 0=no damage to plant). In outline: as §2

Take `C=CCCCCCCCCC(=O)OC1=C(c2c(CC)cc(C)cc2CC)C(=O)CC2(CCOCC2)C1` [Compound P47]: the pest or weed control at 125 g/ha in experiment [1] turned out to be 70%; in experiment [2], 70%; in the experiment on Lolium perenne (LOLPE) [3] it was 50%; with Avena fatua (AVEFA) [4], 60%; with Setaria faberi (SETFA) [5], 60%; in [6], 70%. Besides, the pest or weed control at 500 g/ha (in experiment [7]; in [8]; in the experiment on Lolium perenne (LOLPE) [9]; in the experiment on Avena fatua (AVEFA) [10]; with Setaria faberi (SETFA) [11]; in experiment [12]) was 100% in each case.
Turning to `CCSC(C)CC1CC(=O)C(c2c(CC)cc(C)cc2CC)=C(O)C1` (stereo not drawn) [Compound T7, 2-(2,6-diethyl-4-methylphenyl)-5-[2-(ethylthio)propyl]cyclohexane-1,3-dione], the pest or weed control at 500 g/ha in experiment [1] was determined as 90%; in experiment [2], 100%; in the experiment with Lolium perenne (LOLPE) [3] it was 100%; in the experiment with Avena fatua (AVEFA) [4], 90%; with Setaria faberi (SETFA) [5], 100%; in [6], 90%. The pest or weed control at 500 g/ha (in experiment [7]; in experiment [8]; with Lolium perenne (LOLPE) [9]; in the experiment with Avena fatua (AVEFA) [10]; in the experiment with Setaria faberi (SETFA) [11]; in [12]) was 100% each time.
In the case of `C=CCOC(=O)OC1=C(c2c(CC)cc(C)cc2CC)C(=O)CC2(CCOCC2)C1` [Compound P21], the pest or weed control at 125 g/ha stood at 100% in [1]; 100% in experiment [2]; 90% in the experiment on Lolium perenne (LOLPE) [3]; 100% in the experiment with Avena fatua (AVEFA) [4]; 90% in the experiment with Setaria faberi (SETFA) [5]; 100% in experiment [6]. The pest or weed control at 500 g/ha (in experiment [7]; in experiment [8]; in the experiment on Lolium perenne (LOLPE) [9]; in the experiment with Avena fatua (AVEFA) [10]; with Setaria faberi (SETFA) [11]; in experiment [12]) was 100% in each case.
For the compound `CCc1cc(C)cc(CC)c1C1=C(O)CC(CC(C)[S+]([O-])C(C)C)CC1=O` (stereo not drawn) [Compound T55], the pest or weed control at 125 g/ha amounted to 90% in experiment [1]; 90% in experiment [2]; 80% with Lolium perenne (LOLPE) [3]; 80% in the experiment with Avena fatua (AVEFA) [4]; 60% with Setaria faberi (SETFA) [5]; 80% in [6]. Also, the pest or weed control at 500 g/ha came to 100% in [7]; 100% in experiment [8]; 100% in the experiment with Lolium perenne (LOLPE) [9]; 90% in the experiment on Avena fatua (AVEFA) [10]; 90% in the experiment on Setaria faberi (SETFA) [11]; 100% in experiment [12].
Take `Cc1cc(C)c(C2=C(O)CC3(CCS(=O)(=O)CC3)CC2=O)c(C)c1` [Compound T5]: the pest or weed control at 500 g/ha worked out at 60% in [1]; 70% in experiment [2]; 70% in the experiment on Lolium perenne (LOLPE) [3]; 20% in the experiment on Avena fatua (AVEFA) [4]; 70% with Setaria faberi (SETFA) [5]; 70% in experiment [6]. Besides, the pest or weed control at 500 g/ha in experiment [7] amounted to 40%; in experiment [8], 70%; in the experiment on Lolium perenne (LOLPE) [9], 60%; in the experiment on Avena fatua (AVEFA) [10], 10%; in the experiment with Setaria faberi (SETFA) [11] it was 30%; in experiment [12], 70%.
In the case of `Cc1cc(C)c(C2=C(O)CC(CC(C)SC(C)C)CC2=O)c(C)c1` (stereo not drawn) [Compound T39], the pest or weed control at 125 g/ha in [1] worked out at 20%; in [2] it was 10%; with Lolium perenne (LOLPE) [3], 0%; with Avena fatua (AVEFA) [4], 0%; in the experiment with Setaria faberi (SETFA) [5], 10%; in experiment [6], 30%. Moreover, the pest or weed control at 500 g/ha is 60% in experiment [7]; 70% in experiment [8]; 80% in the experiment on Lolium perenne (LOLPE) [9]; 70% in the experiment on Avena fatua (AVEFA) [10]; 70% in the experiment on Setaria faberi (SETFA) [11]; 90% in [12].
On to `CCc1cc(C)cc(CC)c1C1=C(O)CC(CC(C)S(=O)(=O)C(C)C)CC1=O` (stereo not drawn) [Compound T54], for which the pest or weed control at 125 g/ha in [1] came out at 80%; in experiment [2] it was 80%; with Lolium perenne (LOLPE) [3], 80%; with Avena fatua (AVEFA) [4], 60%; with Setaria faberi (SETFA) [5], 50%; in experiment [6], 70%. In addition, the pest or weed control at 500 g/ha in experiment [7] turned out to be 100%; in [8], 100%; in the experiment with Lolium perenne (LOLPE) [9], 100%; in the experiment on Avena fatua (AVEFA) [10], 80%; in the experiment on Setaria faberi (SETFA) [11] it was 80%; in experiment [12] it was 100%.
With `CCCCCCCCCCCC(=O)OC1=C(c2c(CC)cc(C)cc2CC)C(=O)CC2(CCOCC2)C1` [Compound P44], the pest or weed control at 125 g/ha was 90% in experiment [1]; 80% in [2]; 90% with Lolium perenne (LOLPE) [3]; 90% with Avena fatua (AVEFA) [4]; 90% in the experiment with Setaria faberi (SETFA) [5]; 100% in experiment [6]. Also, the pest or weed control at 500 g/ha (in experiment [7]; in [8]; with Lolium perenne (LOLPE) [9]; in the experiment on Avena fatua (AVEFA) [10]; with Setaria faberi (SETFA) [11]; in [12]) was 100% in each case.
`CCCS(=O)(=O)OC1=C(c2c(CC)cc(C)cc2CC)C(=O)CC2(CCOCC2)C1` [Compound P29]: the pest or weed control at 125 g/ha is 30% in experiment [1]; 30% in [2]; 10% in the experiment on Lolium perenne (LOLPE) [3]; 0% with Avena fatua (AVEFA) [4]; 30% in the experiment with Setaria faberi (SETFA) [5]; 50% in experiment [6]. The pest or weed control at 500 g/ha in experiment [7] was 10%; in experiment [8], 60%; in the experiment with Lolium perenne (LOLPE) [9], 60%; in the experiment with Avena fatua (AVEFA) [10], 60%; with Setaria faberi (SETFA) [11], 60%; in [12] it was 80%.
